Source: the supplement of paper PMC10307832

Tests used:
Assay in all cases: relative viability (nuclei count vs DMSO), 5 days (fraction); higher = more cells survive
Dasatinib + OSI-027 = compound: Cc1nc(Nc2ncc(C(=O)Nc3c(C)cccc3Cl)s2)cc(N2CCN(CCO)CC2)n1 [Dasatinib] + COc1cccc2cc(-c3nc([C@H]4CC[C@H](C(=O)O)CC4)n4ncnc(N)c34)[nH]c12 [OSI-027] (partner 0.5 µM)
How it was run: (§1)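 Medians of duplicate plates are given as relative viability. That measure is the nuclei count in treated wells divided by the count in vehicle wells. Counts were taken on 4× images of lung cancer cell lines in 1536-well plates, 5 days after pin-tool dosing the day after seeding with one drug alone or a fixed anchor-drug dose plus five library-drug doses (not always all listed) in √10 steps.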

XMD13-2 + OSI-027 = compound: C1CC1C(=O)NC2=NNC3=C2C=CC(=C3)C4=CC(=CC=C4)C(=O)NC5CC5 [XMD13-2] + COc1cccc2cc(-c3nc([C@H]4CC[C@H](C(=O)O)CC4)n4ncnc(N)c34)[nH]c12 [OSI-027] (partner 0.5 µM)
How it was run: as §1

XMD13-2 + Decitabine = compound: C1CC1C(=O)NC2=NNC3=C2C=CC(=C3)C4=CC(=CC=C4)C(=O)NC5CC5 [XMD13-2] + Nc1ncn([C@H]2C[C@H](O)[C@@H](CO)O2)c(=O)n1 [Decitabine] (partner 2 µM)
How it was run: as §1

ALW-II-49-7 + Pemetrexed = compound: Cc1ccc(C(=O)Nc2cccc(C(F)(F)F)c2)cc1Nc1cncc(C(N)=O)c1 [ALW-II-49-7] + Nc1nc2[nH]cc(CCc3ccc(C(=O)N[C@@H](CCC(=O)O)C(=O)O)cc3)c2c(=O)[nH]1 [Pemetrexed] (partner 0.2 µM)
How it was run: as §1

| Cell Line | relative viability (Dasatinib + OSI-027; first compound 0.005 µM) | relative viability (Dasatinib + OSI-027; first compound 0.01581 µM) | relative viability (Dasatinib + OSI-027; first compound 0.05 µM) | relative viability (Dasatinib + OSI-027; first compound 0.1581 µM) | relative viability (Dasatinib + OSI-027; first compound 0.5 µM) | relative viability (XMD13-2 + OSI-027; first compound 0.05 µM) | relative viability (XMD13-2 + OSI-027; first compound 0.1581 µM) | relative viability (XMD13-2 + OSI-027; first compound 0.5 µM) | relative viability (XMD13-2 + OSI-027; first compound 1.581 µM) | relative viability (XMD13-2 + OSI-027; first compound 5 µM) | relative viability (XMD13-2 + Decitabine; first compound 0.05 µM) | relative viability (XMD13-2 + Decitabine; first compound 0.1581 µM) | relative viability (XMD13-2 + Decitabine; first compound 0.5 µM) | relative viability (XMD13-2 + Decitabine; first compound 1.581 µM) | relative viability (XMD13-2 + Decitabine; first compound 5 µM) | relative viability (ALW-II-49-7 + Pemetrexed; first compound 0.08 µM) | relative viability (ALW-II-49-7 + Pemetrexed; first compound 0.253 µM) | relative viability (ALW-II-49-7 + Pemetrexed; first compound 0.8 µM) | relative viability (ALW-II-49-7 + Pemetrexed; first compound 8 µM) | relative viability (ALW-II-49-7 + Pemetrexed; first compound 2.53 µM) |
| --- | --- | --- | --- | --- | --- | --- | --- | --- | --- | --- | --- | --- | --- | --- | --- | --- | --- | --- | --- | --- |
| LK-2 | 0.2 | 0.174 | 0.158 | 0.167 | 0.172 | 0.236 | 0.151 | 0.191 | 0.239 | 0.216 | 0.378 | 0.297 | 0.274 | 0.281 | 0.329 | 0.244 | 0.282 | 0.316 | 0.201 |  |
| NCI-H441 | 0.784 | 0.582 | 0.742 | 0.424 | 0.307 | 0.682 | 0.777 | 0.578 | 0.485 | 0.588 | 0.23 | 0.248 | 0.237 | 0.231 | 0.242 | 0.27 | 0.25 | 0.26 | 0.211 | 0.234 |
| NCI-H23 | 0.497 | 0.502 | 0.615 | 0.492 | 0.325 | 0.761 | 0.544 | 0.593 | 0.411 | 0.783 | 0.271 | 0.335 | 0.329 | 0.33 | 0.301 | 0.59 | 0.672 | 0.752 | 0.511 | 0.783 |
| NCI-H647 | 0.672 | 0.303 | 0.251 | 0.213 | 0.118 | 0.779 | 0.781 | 0.669 | 0.59 | 0.508 | 0.398 | 0.329 | 0.471 | 0.392 | 0.326 | 0.186 | 0.175 | 0.16 | 0.115 | 0.123 |
| 201T | 0.662 | 0.567 | 0.597 | 0.386 | 0.211 | 0.95 | 0.731 | 0.854 | 0.701 | 0.723 | 0.861 | 0.839 | 0.905 | 0.86 | 0.902 | 0.321 | 0.365 | 0.287 | 0.381 | 0.346 |
| NCI-H1734 | 0.562 | 0.432 | 0.476 | 0.411 | 0.307 | 0.683 | 0.554 | 0.647 | 0.502 | 0.447 | 0.529 | 0.484 | 0.561 | 0.487 | 0.528 | 0.427 | 0.448 | 0.428 | 0.443 | 0.404 |
| NCI-H596 | 0.656 | 0.632 | 0.547 | 0.479 | 0.306 | 0.776 | 0.673 | 0.715 | 0.79 | 0.985 | 0.934 | 1.02 | 1 | 1.03 | 1.29 | 0.449 | 0.47 | 0.469 | 0.444 | 0.503 |
